Experimental data published in patent US20250129146A1, “COMBINED CANCER THERAPY WITH AN EPITHELIAL CELL ADHESION MOLECULE (EPCAM) INHIBITOR AND A WNT INHIBITOR” (ACADEMIA SINICA, priority 2021, published 2025).
“Also recorded” adds a separate entry of the source.

Tests used:
[1] = system: Wnt receptors (FZD6/7, LRP5/6); assay: Wnt receptor protein and mRNA expression (western blot, qPCR); format: cell-based, human; conditions: HCT116 cells; EpAb2-6, LGK974 or combination
Procedure: (§1) For western blotting, cells were extracted using radioimmunoprecipitation assay (RIPA) buffer [(0.01 M sodium phosphate, pH 7.2), 150 mM NaCl, 2 mM EDTA, 50 mM NaF, 1% Nonidet P-40, 1% sodium deoxycholate, and 0.1% SDS)] containing phosphatase inhibitor (Roche) and protease inhibitor (Roche) cocktail. Equal amounts of protein were separated by SDS-PAGE and then transferred to PVDF membranes. The membranes were blocked with 3% BSA in TBST (Blocking solution) and incubated with necessary primary antibodies in the blocking solution overnight at 4° C. Membranes were then incubated with HRP-conjugated secondary antibodies in the blocking solution for 1 h at room temperature, and protein expression were detected. Antibodies used: anti-α-tubulin (Sigma), anti-EpCAM (abeam), anti-Active β-Catenin (Millipore), anti-total β-Catenin (abeam), anti-Frizzled 6 (CST), anti-Frizzled 7 (Santa Cruz Biotech), anti-LRP5 (abcam), anti-Phospho-LRP5 (abcam), anti-Phospho-LRP6 (CST), anti-LRP6 (CST) and anti-EpEX antibody EpAb3-5 (Produced in house), anti-ADAM17 (abcam), anti-phopho-ADAM17 (abcam), anti-Presenilin2 (abcam), anti-phospho-Presenilin2 (S327) (abcam), anti-phospho-Presenilin2 (S330) (abcam) and anti-Axin2 (CST).
(§2) Total RNA was extracted using TRI reagent and 5 μg of the total RNA was further reverse-transcribed using oligo (dT) primer with reverse transcriptase. Quantitative real time RT-PCR (qPCR) was performed on cDNA using the Light Cycler 480 SYBR Green-I Master kit and the LightCycler480 System. The gene expression levels of each sample were normalized to the expression levels of glyceraldehyde 3-phosphate dehydrogenase (GAPDH) or β-actin.

[2] = system: colon cancer cells (SW620, HCT116); assay: Annexin-V/PI apoptosis assay; format: cell-based, human; conditions: SW620 and HCT116 cells; 20 μg/mL EpAb2-6, LGK974 or the combination for 24 hrs
Procedure: Cells were seeded in 24-well plate ([…] cells per well) overnight and then treated with 20 μg/mL mEpAb2-6, hEpAb2-6 or MT201, or […] LGK974 (MedChemExpress) or the combination for 24 hrs. Cell pellets were collected, and an apoptosis assay was performed using an Annexin-V/PI apoptosis kit (BD Biosciences). Results were read by flow cytometry analysis percentage apoptotic cells was calculated.

HCT116 cells [3] = assay: Metastatic animal model of human CRC (HCT116 cells via tail vein); format: in vivo, NOD/SCID mice
Procedure: (§3) All animal experiments were approved and performed according to the regulations from the IACUC at Academia Sinica. HCT116 cells (1×10^6) were injected via tail vein for the metastatic model. Otherwise, 2×10^5 HCT116 cells with luciferase were surgically transplanted into the cecum wall for the orthotopic model. Male NOD/SCID mice, approximately 6 to 8 weeks old, were used for animal experiments (n=5 and n=6 for each treatment group in metastatic and orthotopic models respectively). At 72-h post-injection/transplantation, mice were randomly distributed into four different treatment groups. For the treatments, animals were injected with 20 mg/kg IgG or EpAb2-6 via tail vein twice a week for four weeks, or fed by oral gavage with either vehicle [0.5% methylcellulose (Sigma-Aldrich) and 0.5% Tween80 (Sigma-Aldrich)] or 5 mg/kg LGK974 (MedChemExpress) formulated with the vehicle on alternating days for four weeks, or animals were treated with the combination of both inhibitor and antibody. For the metastatic model, survival was the main endpoint. For the orthotopic model, tumor progression was monitor using bioluminescence imaging. To image the tumors, intraperitoneal injection of D-Luciferin (GOLD BIO) was performed, and images were taken 10 min post-injection.

[4] = dose of 5 mg/kg body weight; cited from earlier work
HT29 and SW620 cells = assay: Colony formation assay; format: cell-based, human
Procedure: Cells were seeded in 12-well plate (5×10^3 cells per well) and treated with 20 µg/mL mEpAb2-6, hEpAb2-6 or MT201 (Produced in house) or 400 ng/mL LGK974 (MedChemExpress) or combination as indicated in which case the elements were directly added to the culture medium. The medium along with the treatment component were changed in every alternating day and the cells were allowed to grow for 10 days. On the tenth day, cells were washed and fixed with 4% paraformaldehyde and further stained with 1% crystal violet for 30 min. Colonies were washed 3 times with PBS, and images were taken. Furthermore, to measure colony density, the wells were incubated with 0.5% SDS shaking for 2 h at RT. The supernatants were collected, and the absorbance of the solution was taken at 570 nm using a microplate reader.

LRP5/6 = assay: Phosphorylation of LRP5/6 (western blot); format: cell-based, human; conditions: SW620 cells; LGK974, EpAb2-6 or combined treatment
Procedure: as §1

HCT116 cells [5] = assay: Orthotopic animal model of human CRC (HCT116 cells with luciferase in cecum wall); format: in vivo, NOD/SCID mice
Procedure: as §3

Oct4, Sox2 and c-Myc = assay: Stemness (pluripotency) factor expression (western blot, qPCR); format: cell-based, human; conditions: HT29 cells; LGK974, EpAb2-6 or combined treatment
Procedure: as §1, §2

[6] = system: HCT116, HT29 and SW620 cells; assay: Tumorsphere assay; format: cell-based, human
Procedure: Cells were seeded in ultra-low adherent 6-well plates (5×10^4 cells per well) or 24-well plates (1×10^3 cells per well) and maintained in DMEM/F-12 supplemented with B27. Further, cells were treated with 20 μg/mL mEpAb2-6, hEpAb2-6 or MT201 (Produced in house), or 400 ng/mL LGK974 (MedChemExpress) or the combination, by direct addition to the culture medium. The entire culture medium, including the treatment component, was changed in every other day. Cells were cultured for 10 days, and on 10th day, spheres were counted and photographed under the microscope.

active β-Catenin = assay: Nuclear translocation of β-Catenin (immunofluorescence staining; cell fractionation with western blot); format: cell-based, human; conditions: wild-type HCT116 cells; 20 μg/mL EpAb2-6 for 6 h, 400 ng/mL LGK974 for 9 h or combination
Procedure: Cells (1×10^6) were seeded overnight and further allowed to grow in serum free conditions. Then cells were further treated with 20 μg/mL mEpAb2-6 or hEpAb2-6 or MT201 for 6 h or with 400 ng/mL LGK974 (MedChemExpress) for 9 h or combination as indicated. Samples were fractioned into cytosol and nuclear extracts using nuclear/cytosol fractionation kit (Biovision) according to the manufacturer's protocol. The fractions were then subjected to western blot analysis.
as §1
Glass slides were used in 24-well plates and coated with 0.1% gelatin. Further, 3×10^4 cells were seeded in serum free medium overnight. Cells were treated with 20 μg/mL EpAb2-6 for 6 h, or 400 ng/mL LGK974 (MedChemExpress) for 9 h or the combination. Cells were washed using ice-cold PBS and fixed with 4% paraformaldehyde for 15 min at RT and washed with ice-cold PBS. Further, cells were permeabilized using 0.1% triton-X in PBS for 20 min and subsequently washed with PBS. Cells were blocked with 3% BSA in PBS for 1 h at RT. Next, cells were treated with primary antibody anti-Active β-Catenin (Millipore) overnight. Then, cells were washed and treated with secondary antibody in 3% BSA containing PBS along with DAPI for 1 h at RT. Samples were then washed in PBS five times and mounted for microscopy. Nuclear β-Catenin intensities were calculated using IMARIS (Oxford Instruments) software.

[7] = EpCAM-knockout cells, exogenous EpEX, LGK974 or both

For Cc1cc(-c2ncc(CC(=O)Nc3ccc(-c4cnccn4)cn3)cc2C)ccn1 [LGK974, 2-(2′,3-dimethyl-[2,4′-bipyridin]-5-yl)-N-(5-(pyrazin-2-yl)pyridin-2-yl)acetamide, reference compound], the “expression of Wnt receptors” value [1] was “partially decrease”, the induction of apoptosis [2] was “did not observe significant effects” and the animal survival (HCT116 cells [3]; 20 mg/kg EpAb2-6 via tail vein twice a week, 5 mg/kg LGK974 oral gavage on alternating days, four weeks) was “decreased overall survival”. The distant metastases (HCT116 cells [3]; autopsies) was “distinct metastases; also recorded: found to have distant metastases”, the toxicity [4] was “non-toxic” and the colony formation (HT29 and SW620 cells; [7]) was “complete loss of ability to form spheres or colonies”. For the same compound, the colony formation (HT29 and SW620 cells; HT29 cells, 20 µg/mL EpAb2-6, 400 ng/mL LGK974 or combination, 10 days) was “decreased”, the LRP5/6 phosphorylation (LRP5/6) was “could decrease LRP5/6 phosphorylation” and the “body weight after cessation of treatment” value (HCT116 cells [5]; orthotopic model) was “continued to lose body weight”. The “median / overall survival” value (HCT116 cells [5]; orthotopic model) was “low median survival”, the “body weight during the treatment period” value (HCT116 cells [5]; orthotopic model, 5 mg/kg LGK974) was “decreased during the treatment period” and the “tumor progression (bioluminescence)” value (HCT116 cells [5]; orthotopic model, 20 mg/kg EpAb2-6 via tail vein twice a week, 5 mg/kg LGK974 oral gavage on alternating days, four weeks) was “developed significant tumors”. For the same compound, the “tumor (cancer) progression in animal models” value (HCT116 cells [5]; summary statement, metastatic and orthotopic animal models of human CRC) was “did not observe significant effects”, the “expression of pluripotency factors” value (Oct4, Sox2 and c-Myc) was “decreased pluripotency factor expressions” and the tumorsphere formation [6, 7] was “complete loss of ability to form spheres or colonies”. The tumorsphere formation ([6]; HCT116 and HT29 cells, 20 μg/mL EpAb2-6, 400 ng/mL LGK974 or combination, 10 days) was “decreased”, the cancer stemness properties ([6]; summary statement, CRC cells, tumorsphere and colony formation) was “partially attenuate cancer sternness properties” and the “nuclear β-Catenin” value (active β-Catenin) was “decreased nuclear D3-Catenin but did not completely clear the protein from the nucleus”.
